Measurements as given in ChEMBL document CHEMBL1139575, “Discovery and synthesis of a novel and selective drug-like P2X(1) antagonist” (Bioorg Med Chem Lett, 2005).

Assays:
P2X purinoceptor 2 = target: T1, P2X purinoceptor 2 (Homo sapiens, UniProt Q9UBL9); experiment: Inhibitory concentration against human P2X purinoceptor 2 (hP2X2) expressed in 1321N1 astrocytoma cells; type: functional, cell-based
T1 sequence (Q9UBL9 whole entry): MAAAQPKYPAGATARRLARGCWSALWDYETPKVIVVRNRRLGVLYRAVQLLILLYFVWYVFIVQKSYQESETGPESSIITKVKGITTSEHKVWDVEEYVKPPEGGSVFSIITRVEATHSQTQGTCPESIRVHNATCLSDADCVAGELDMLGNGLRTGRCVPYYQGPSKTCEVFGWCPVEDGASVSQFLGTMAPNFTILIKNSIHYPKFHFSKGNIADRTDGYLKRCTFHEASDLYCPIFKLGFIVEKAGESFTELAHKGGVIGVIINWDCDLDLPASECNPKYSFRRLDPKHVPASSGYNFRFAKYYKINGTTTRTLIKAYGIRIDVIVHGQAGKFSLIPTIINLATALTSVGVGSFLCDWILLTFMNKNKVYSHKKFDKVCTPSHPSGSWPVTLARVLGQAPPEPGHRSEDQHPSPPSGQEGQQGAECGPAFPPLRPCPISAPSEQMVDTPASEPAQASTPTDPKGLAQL

P2X purinoceptor 1 = target: T2, P2X purinoceptor 1 (Homo sapiens, UniProt P51575); experiment: Inhibitory concentration against human P2X purinoceptor 1 (hP2X1) expressed in CHO-K1 cells; type: functional, cell-based
T2 sequence (P51575 whole entry): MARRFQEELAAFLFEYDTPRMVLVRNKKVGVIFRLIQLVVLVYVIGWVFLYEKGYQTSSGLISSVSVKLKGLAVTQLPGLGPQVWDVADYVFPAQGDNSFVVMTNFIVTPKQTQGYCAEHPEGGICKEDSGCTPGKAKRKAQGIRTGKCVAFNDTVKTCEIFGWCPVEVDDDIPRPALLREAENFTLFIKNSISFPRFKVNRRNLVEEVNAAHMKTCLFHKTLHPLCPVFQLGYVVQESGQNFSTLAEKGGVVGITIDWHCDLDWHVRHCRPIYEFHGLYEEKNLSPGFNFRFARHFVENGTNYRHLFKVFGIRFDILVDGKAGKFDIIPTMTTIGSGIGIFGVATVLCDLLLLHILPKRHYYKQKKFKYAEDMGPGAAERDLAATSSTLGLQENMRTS

P2X purinoceptor 3 = target: T3, P2X purinoceptor 3 (Homo sapiens, UniProt P56373); experiment: Inhibitory concentration against human P2X purinoceptor 3 (hP2X3) expressed in CHO-K1 cells; type: functional, cell-based
T3 sequence (P56373 whole entry): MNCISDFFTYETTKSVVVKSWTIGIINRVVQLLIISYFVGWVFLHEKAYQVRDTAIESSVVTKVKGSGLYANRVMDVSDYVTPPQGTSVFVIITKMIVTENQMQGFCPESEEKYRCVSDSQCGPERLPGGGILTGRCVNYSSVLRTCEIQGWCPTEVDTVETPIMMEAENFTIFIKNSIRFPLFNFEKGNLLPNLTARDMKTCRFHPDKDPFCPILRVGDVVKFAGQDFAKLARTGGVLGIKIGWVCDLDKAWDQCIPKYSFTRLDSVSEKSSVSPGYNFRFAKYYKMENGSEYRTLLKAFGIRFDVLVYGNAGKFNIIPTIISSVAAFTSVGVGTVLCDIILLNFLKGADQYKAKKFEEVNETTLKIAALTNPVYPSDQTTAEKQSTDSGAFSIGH

[1] = Inhibitory concentration against P2X purinoceptor 2/3 expressed in 1321N1 astrocytoma cells; type: functional, cell-based, Homo sapiens

With O=C(N[C@H](Cc1cscn1)C(=O)N[C@@H](CC1CCCCC1)[C@@H](O)[C@@H](O)C1CC1)c1nc2ccccc2[nH]1 the IC50 (P2X purinoceptor 2) was > 100 µM, the IC50 (P2X purinoceptor 1) was 3 µM and the IC50 (P2X purinoceptor 3) was > 100 µM. The IC50 [1] was > 100 µM.
